Results on 21 compounds are retold here after patent publication US20120157439A1, “RAF INHIBITOR COMPOUNDS AND METHODS OF USE THEREOF” (GENENTECH, INC., priority 2009, published 2012).

Where two headings read alike, the source gives them in different places.

This test deals with T1, V600E full-length B-Raf (Homo sapiens, UniProt P15056, V600E).
T1 construct: 1 μM FSBA-MEK and 20 nM V600E full-length B-Raf; made in house; host or cells: sf9 insect cells (baculovirus)
Nature of the test: B-Raf IC50 Assay (B-RAF V600E inhibition assay, Example A). It counts as biochemical. The source says:
Determining the activity of Raf in the sample is possible by a number of direct and indirect detection methods (US 2004/0082014). Activity of human recombinant B-Raf protein may be assessed in vitro by assay of the incorporation of radio labeled phosphate to recombinant MAP kinase (MEK), a known physiologic substrate of B-Raf, according to US 2004/0127496 and WO 03/022840. The activity/inhibition of V600E full-length B-Raf was estimated by measuring the incorporation of radio labeled phosphate from [γ-33P]ATP into FSBA-modified wild-type MEK (see Example A).
Activity of human recombinant B-Raf protein may be assessed in vitro by assay of the incorporation of radio labeled phosphate to recombinant MAP kinase (MEK), a known physiologic substrate of B-Raf, according to U.S. Patent Appl. Publication No. 2004/0127496 and WO 03/022840. Catalytically active human recombinant B-Raf protein is obtained by purification from sf9 insect cells infected with a human B-Raf recombinant baculovirus expression vector.
The activity/inhibition of V600E full-length B-Raf was estimated by measuring the incorporation of radio labeled phosphate from [γ-33P]ATP into FSBA-modified wild-type MEK. The […] assay mixtures contained 25 mM Na Pipes, pH 7.2, 100 mM KCl, 10 mM MgCl2, 5 mM β-glycerophosphate, 100 μM Na Vanadate, 4 μM ATP, 500 nCi [γ-33P]ATP, 1 μM FSBA-MEK and 20 nM V600E full-length B-Raf. Incubations were carried out at 22° C. in a Costar 3365 plate (Corning). Prior to the assay, the B-Raf and FSBA-MEK were preincubated together in assay buffer at 1.5× (20 μL of 30 nM and 1.5 μM, respectively) for 15 minutes, and the assay was initiated by the addition of 10 μL of […]. Following the 60-minute incubation, the assay mixtures were quenched by the addition of 100 μL of 25% TCA, the plate was mixed on a rotary shaker for 1 minute, and the product was captured on a Perkin-Elmer GF/B filter plate using a Tomtec Mach III Harvester. After sealing the bottom of the plate, 35 μL of Bio-Safe II (Research Products International) scintillation cocktail were added to each well and the plate was top-sealed and counted in a Topcount NXT (Packard).

The mark [1] stands for this setting: B-Raf V600E assay of Example A: less than 100 nM, read-out: IC50.
Setting [2] is: B-Raf V600E assay of Example A: less than about 1 μM, read-out: IC50.
Setting [3] is: incorporation of radio labeled phosphate from [γ-33P]ATP into FSBA-modified wild-type MEK, 4 μM ATP, 20 nM V600E full-length B-Raf, 60-minute incubation, 22° C., read-out: BRAF V600E IC50.

T1 sequence (P15056 whole entry V600E): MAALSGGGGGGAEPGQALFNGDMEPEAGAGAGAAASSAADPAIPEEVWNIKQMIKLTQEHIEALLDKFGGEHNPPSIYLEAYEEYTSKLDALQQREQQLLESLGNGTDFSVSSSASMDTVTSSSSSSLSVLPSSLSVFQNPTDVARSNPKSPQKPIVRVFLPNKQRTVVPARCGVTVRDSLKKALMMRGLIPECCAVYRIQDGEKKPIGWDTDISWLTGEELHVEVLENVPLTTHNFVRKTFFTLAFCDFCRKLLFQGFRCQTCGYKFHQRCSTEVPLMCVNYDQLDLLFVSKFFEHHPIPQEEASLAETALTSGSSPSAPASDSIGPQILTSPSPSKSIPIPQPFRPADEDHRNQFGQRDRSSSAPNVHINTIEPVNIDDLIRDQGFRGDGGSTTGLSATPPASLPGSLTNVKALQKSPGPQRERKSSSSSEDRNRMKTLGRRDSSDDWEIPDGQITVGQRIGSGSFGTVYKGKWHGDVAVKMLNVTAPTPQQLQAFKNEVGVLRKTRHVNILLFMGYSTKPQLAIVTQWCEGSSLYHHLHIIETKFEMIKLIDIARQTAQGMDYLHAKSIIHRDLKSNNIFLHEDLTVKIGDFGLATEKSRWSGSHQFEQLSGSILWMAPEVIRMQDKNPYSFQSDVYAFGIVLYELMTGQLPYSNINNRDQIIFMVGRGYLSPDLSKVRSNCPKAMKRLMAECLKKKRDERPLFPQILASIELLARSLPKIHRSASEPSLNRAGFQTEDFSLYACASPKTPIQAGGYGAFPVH

The term IC50 denotes the concentration at which inhibition is half-maximal. For the compound `CCCS(=O)(=O)Nc1ccc(Cl)c(NC(=O)c2csc3c(NC(C)C)ncnc23)c1Cl` [Example 70, 4-Isopropyl-amino-thieno [3,2-d] pyrimidine-7-carboxylic acid [2 6-dichloro-3-(propane-1-sulfonyl-amino)-phenyl]-amide], the IC50 is less than 100 nM under setting [1], less than 1000 nM under setting [2] and 3.4 nM under setting [3].
For `CC(C)CS(=O)(=O)Nc1ccc(Cl)c(NC(=O)c2csc3c(N)ncnc23)c1F` [Example 22, 4-Amino-thieno[3,2-d] pyrimidine-7-carboxylic acid [6-chloro-2-fluoro-3-(2-methyl-propane-1-sulfonylamino)-phenyl]-amide], in that order: less than 100 nM, less than 1000 nM and 2 nM.
The corresponding values for `CCCS(=O)(=O)Nc1cc(F)c(F)c(NC(=O)c2csc3c(NC4CC4)ncnc23)c1F` [Example 86, 4-Cyclopropyl-amino-thieno [3,2-d] pyrimidine-7-carboxylic acid [2,3,6-trifluoro-5-(propane-1-sulfonyl-amino)-phenyl]-amide] are less than 100 nM, less than 1000 nM and 1.2 nM.
For `CCCS(=O)(=O)Nc1ccc(F)c(NC(=O)c2csc3c(NC4CCCC4)ncnc23)c1F` [Example 54, 4-Cyclopentyl-amino-thieno [3,2-d] pyrimidine-7-carboxylic acid [2,6-difluoro-3-(propane-1-sulfonylamino)-phenyl]-amide], the IC50 is less than 1000 nM under setting [2] and 416 nM under setting [3].
For `CCCS(=O)(=O)Nc1ccc(F)c(NC(=O)c2csc3c(NCC)ncnc23)c1F` [Example 48, 4-Ethylamino-thieno[3,2-d] pyrimidine-7-carboxylic acid [2,6-difluoro-3-(propane-1-sulfonylamino)-phenyl]-amide], the IC50 runs as follows: under setting [1], less than 100 nM; under setting [2], less than 1000 nM; under setting [3], 11.4 nM.
Consider `CCCS(=O)(=O)Nc1cc(F)c(F)c(NC(=O)c2csc3c(NC4CCOC4)ncnc23)c1F` (centres unmarked) [Example 88, 4-(Tetrahydro-furan-3-ylamino)-thieno[3,2-d] pyrimidine-7-carboxylic acid [2,3,6-trifluoro-5-(propane-1-sulfonyl-amino)-phenyl]-amide], for which the IC50 reads like this: under setting [2], less than 1000 nM; under setting [3], 120 nM.
As to `CCS(=O)(=O)Nc1ccc(F)c(NC(=O)c2csc3c(N)ncnc23)c1Cl` [Example 4, 4-Amino-thieno[3,2-d] pyrimidine-7-carboxylic acid (2-chloro-3-ethane-sulfonylamino-6-fluoro-phenyl)-amide], the IC50 by setting is: under setting [1], less than 100 nM; under setting [2], less than 1000 nM; under setting [3], 4.25 nM.
For `Nc1ncnc2c(C(=O)Nc3c(F)ccc(NS(=O)(=O)N4CCCC4)c3F)csc12` [Example 28, 4-Amino-thieno[3,2-d]pyrimidine-7-carboxylic acid[2,6-difluoro-3-(pyrrolidine-1-sulfonylamino)-phenyl]-amide], in that order: less than 100 nM, less than 1000 nM and 11.6 nM.
For `CCCS(=O)(=O)Nc1ccc(Cl)c(NC(=O)c2csc3cncnc23)c1Cl` [Example 107, Thieno[3,2-d]pyrimidine-7-carboxylic acid [2,6-dichloro-3-(propane-1-sulfonylamino)-phenyl]-amide], the IC50 is less than 100 nM under setting [1], less than 1000 nM under setting [2] and 9.6 nM under setting [3].
As to `CCCS(=O)(=O)Nc1ccc(F)c(NC(=O)c2csc3cncnc23)c1F` [Example 108, Thieno[3,2-d]pyrimidine-7-carboxylic acid [2,6-difluoro-3-(propane-1-sulfonylamino)-phenyl]-amide], the half-inhibitory concentration (IC50) by setting is: under setting [2], less than 1000 nM; under setting [3], 288 nM.
For `CCCS(=O)(=O)Nc1ccc(F)c(NC(=O)c2c[nH]c3c(NC)ncnc23)c1F` [Example 103, 4-Methylamino-5H-pyrrolo[3,2-d]pyrimidine-7-carboxylic acid [2,6-difluoro-3-(propane-1-sulfonylamino)-phenyl]-amide], the IC50 is, setting by setting: under setting [2], less than 1000 nM; under setting [3], 115 nM.
Consider `CCCS(=O)(=O)Nc1ccc(F)c(NC(=O)c2csc3c(NCCO)ncnc23)c1F` [Example 59, 4-(2-Hydroxy-ethylamino)-thieno[3,2-d] pyrimidine-7-carboxylic acid [2,6-difluoro-3-(propane-1-sulfonylamino)-phenyl]-amide], for which the half-inhibitory concentration (IC50) reads like this: under setting [1], less than 100 nM; under setting [2], less than 1000 nM; under setting [3], 57.1 nM.
`CCCS(=O)(=O)Nc1ccc(F)c(NC(=O)c2ccc3c(N)ncnn23)c1F` [Example 101, 4-Amino-pyrrolo[2,1-f][1,2,4]triazine-7-carboxylic acid [2,6-difluoro-3-(propane-1-sulfonylamino)-phenyl]-amide]: the IC50 is less than 100 nM under setting [1], less than 1000 nM under setting [2] and 2.5 nM under setting [3].
For the compound `CCCS(=O)(=O)Nc1ccc(Cl)c(NC(=O)c2csc3c(NC4CCC4)ncnc23)c1Cl` [Example 72, 4-Cyclobutyl-amino-thieno [3,2-d] pyrimidine-7-carboxylic acid [2,6-dichloro-3-(propane-1-sulfonyl-amino)-phenyl]-amide], the IC50 under setting [1] is less than 100 nM, the IC50 under setting [2] was less than 1000 nM and the IC50 under setting [3] stood at 2.4 nM.
With `O=C(Nc1c(F)ccc(NS(=O)(=O)CCCF)c1F)c1csc2c(NC3CC3)ncnc12` [Example 64, 4-Cyclopropylamino-thieno[3,2-d]pyrimidine-7-carboxylic acid [2,6-difluoro-3-(3-fluoro-propane-1-sulfonylamino)-phenyl]amide], the IC50 under setting [1] was less than 100 nM, the IC50 under setting [2] is less than 1000 nM and the IC50 under setting [3] stood at 1.1 nM.
For `O=C(Nc1c(F)c(F)cc(NS(=O)(=O)CCCF)c1F)c1csc2c(NC3CC3)ncnc12` [Example 97, 4-Cyclopropyl-amino-thieno [3,2-d] pyrimidine-7-carboxylic acid [2,3,6-trifluoro-5-(3-fluoro-propane-1-sulfonyl-amino)-phenyl]-amide], in that order: less than 100 nM, less than 1000 nM and 0.71 nM.
For `CCCS(=O)(=O)Nc1ccc(F)c(NC(=O)c2csc3c(NCC(C)C)ncnc23)c1F` [Example 57, 4-Isobutylamino-thieno[3,2-d] pyrimidine-7-carboxylic acid [2,6-difluoro-3-(propane-1-sulfonylamino)-phenyl]-amide], in that order: less than 100 nM, less than 1000 nM and 12.8 nM.
As to `CCCS(=O)(=O)Nc1ccc(F)c(NC(=O)c2csc3c(NC(C)C)ncnc23)c1F` [Example 50, 4-Isopropyl-amino-thieno [3,2-d] pyrimidine-7-carboxylic acid [2,6-difluoro-3-(propane-1-sulfonylamino)-phenyl]-amide], the IC50 was less than 100 nM under setting [1], less than 1000 nM under setting [2] and 36.5 nM under setting [3].
On to `CCCS(=O)(=O)Nc1ccc(Cl)c(NC(=O)c2csc3c(NOC)ncnc23)c1Cl` [Example 65, 4-Methoxyamino-thieno[3,2-d]pyrimidine-7-carboxylic acid [2,6-dichloro-3-(propane-1-sulfonylamino)-phenyl]amide], for which the IC50 reads like this: under setting [1], less than 100 nM; under setting [2], less than 1000 nM; under setting [3], 1.2 nM.
On to `CCCS(=O)(=O)Nc1cc(F)c(F)c(NC(=O)c2csc3c(NCC(F)F)ncnc23)c1F` [Example 90, 4-(2,2-Difluoro-ethylamino)-thieno[3,2-d] pyrimidine-7-carboxylic acid [2,3,6-trifluoro-5-(propane-1-sulfonyl-amino)-phenyl]-amide], for which the IC50 was less than 100 nM under setting [1], less than 1000 nM under setting [2] and 16 nM under setting [3].
For `CCCS(=O)(=O)Nc1cccc(NC(=O)c2csc3c(N)ncnc23)c1Cl` [Example 25, 4-Amino-thieno[3,2-d]pyrimidine-7-carboxylic acid[2-chloro-3-(propane-1-sulfonylamino)-phenyl]-amide], in that order: less than 100 nM, less than 1000 nM and 7.2 nM.
